# Reference: patent US11000033B2, “Ketone or oxime compound, and herbicide” (NISSAN CHEMICAL CORPORATION, priority 2014, dated 2021)
# Assays:
# Assay type in all cases: in vivo
# [1] = tested on: Echinochloa oryzacola Vasing.; experiment: Test Example 2: herbicidal activity, application during weed generation in submerged conditions (symbol A); settings: Table 23; application herbicide amount 320 g/ha; grade 0-5 by criteria of Test Example 1
# Procedure, shortened: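 Treatment timing was the one- to two-leaf stage, with diluted emulsifiable compound dropped onto the paddy water (depth 4 cm) over alluvial soil. All three species grew from a mixed sowing in a 25° C. to 30° C. greenhouse. Injury was judged by eye 3 weeks on.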
# soybean = experiment: Test Example 5: effect on crop by foliage application, plastic box (symbol d); settings: 320 g/ha, 3 weeks after application
# Procedure, shortened: (§1)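 Plants were raised from seed in a greenhouse (25° C. to 30° C.) after sowing in a plastic box of sterilized diluvial soil.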
# Apera spica-venti = experiment: Test Example 5: herbicidal effect by foliage application, plastic box (symbol L); settings: 320 g/ha, 3 weeks after application
# Procedure, shortened: (§2)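 Leaf-applied emulsion, water-diluted to a preset herbicide dose, on two-week-old seedlings raised in a 25° C. to 30° C. greenhouse; injury rated at 3 weeks using earlier criteria.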
# Monochoria vaginalis = experiment: Test Example 1: herbicidal activity, application before weed generation in submerged conditions (symbol C); settings: application herbicide amount 320 g/ha
# Procedure, shortened: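 Weed control was rated three weeks after treatment on a 0–5 scale, from 5% or lower up to 90% or more. Pre-emergence water-surface application of diluted emulsion at a predetermined rate was made on the day of sowing, in flooded (4 cm water) pots containing rice seedlings, kept at 25–30 °C under glass.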
# Amaranthus retroflexus = experiment: Test Example 5: herbicidal effect by foliage application, plastic box (symbol N); settings: 320 g/ha, 3 weeks after application
# Procedure, shortened: as §2
# Setaria viridis = experiment: Test Example 4: herbicidal effect by soil treatment (symbol G); settings: application herbicide amount 320 g/ha
# Procedure, shortened: (§3)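 Seeds were sown in sterilized diluvial soil, covered with about 1.5 cm of soil, and the soil surface was sprayed with a water-diluted emulsion of the compound at a predetermined rate. Plants grew in a greenhouse at 25° C. to 30° C.; effects were scored visually 3 weeks after application.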
# Galium spurium = experiment: Test Example 5: herbicidal effect by foliage application, plastic box (symbol Q); settings: 320 g/ha, 3 weeks after application
# Procedure, shortened: as §2
# Digitaria ciliaris = experiment: Test Example 4: herbicidal effect by soil treatment (symbol F); settings: application herbicide amount 320 g/ha
# Procedure, shortened: as §3
# Leptochloa chinensis = experiment: Test Example 3: herbicidal effect by foliage application, Wagner pot (symbol D); settings: application herbicide amount 320 g/ha
# Procedure, shortened: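 The compound, formulated as an emulsion and diluted with water to a predetermined rate, is applied uniformly to leaves of two-week-old seedlings growing in submerged alluvial soil at 25–30 °C. Rice is included. Each plant is assessed 3 weeks later using defined criteria.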
# Abutilon theophrasti = experiment: Test Example 5: herbicidal effect by foliage application, plastic box (symbol M); settings: 320 g/ha, 3 weeks after application
# Procedure, shortened: as §2
# corn = experiment: Test Example 5: effect on crop by foliage application, plastic box (symbol c); settings: 320 g/ha, 3 weeks after application
# Procedure, shortened: as §1
# rapeseed = experiment: Test Example 5: effect on crop by foliage application, plastic box (symbol g); settings: 320 g/ha, 3 weeks after application
# Procedure, shortened: as §1
# Chenopodium album = experiment: Test Example 5: herbicidal effect by foliage application, plastic box (symbol O); settings: 320 g/ha, 3 weeks after application
# Procedure, shortened: as §2
# beet = experiment: Test Example 5: effect on crop by foliage application, plastic box (symbol f); settings: 320 g/ha, 3 weeks after application
# Procedure, shortened: as §1
structure (smiles),measurement,setting,value
CCC(=O)CCC1CC(O)=C(c2c(C)cc(C)cc2C)C1=O (stereo not drawn) [5-001],"Herbicidal effect grade, A: Echinochloa oryzacola Vasing.",[1],0 (Herbicidal ratio of 5% or lower (almost no effect))
same,"d: soybean, effect on crop grade",soybean,0 (Herbicidal ratio of 5% or lower (almost no effect))
same,"L: Apera spica-venti, herbicidal effect grade",Apera spica-venti,4 (Herbicidal ratio of 70% or higher and lower than 90%)
same,"Herbicidal effect grade, C: Monochoria vaginalis",Monochoria vaginalis,0 (Herbicidal ratio of 5% or lower (almost no effect))
same,"N: Amaranthus retroflexus, herbicidal effect grade",Amaranthus retroflexus,0 (Herbicidal ratio of 5% or lower (almost no effect))
same,"G: Setaria viridis, herbicidal effect grade",Setaria viridis,0 (Herbicidal ratio of 5% or lower (almost no effect))
same,"Q: Galium spurium, herbicidal effect grade",Galium spurium,0 (Herbicidal ratio of 5% or lower (almost no effect))
same,"F: Digitaria ciliaris, herbicidal effect grade",Digitaria ciliaris,4 (Herbicidal ratio of 70% or higher and lower than 90%)
same,"herbicidal effect on D (Leptochloa chinensis), grade 0-5",Leptochloa chinensis,3 (Herbicidal ratio of 40% or higher and lower than 70%)
same,"M: Abutilon theophrasti, herbicidal effect grade",Abutilon theophrasti,0 (Herbicidal ratio of 5% or lower (almost no effect))
same,"c: corn, effect on crop grade",corn,2 (Herbicidal ratio of 20% or higher and lower than 40%)
same,"g: rapeseed, effect on crop grade",rapeseed,0 (Herbicidal ratio of 5% or lower (almost no effect))
CON=C(C)CC1CC(O)=C(c2c(C)cc(C(=O)OC)cc2C)C1=O (stereo not drawn) [6-023],"d: soybean, effect on crop grade",soybean,0 (Herbicidal ratio of 5% or lower (almost no effect))
same,"L: Apera spica-venti, herbicidal effect grade",Apera spica-venti,4 (Herbicidal ratio of 70% or higher and lower than 90%)
same,"Herbicidal effect grade, C: Monochoria vaginalis",Monochoria vaginalis,0 (Herbicidal ratio of 5% or lower (almost no effect))
same,"N: Amaranthus retroflexus, herbicidal effect grade",Amaranthus retroflexus,0 (Herbicidal ratio of 5% or lower (almost no effect))
same,"G: Setaria viridis, herbicidal effect grade",Setaria viridis,3 (Herbicidal ratio of 40% or higher and lower than 70%)
same,"Q: Galium spurium, herbicidal effect grade",Galium spurium,0 (Herbicidal ratio of 5% or lower (almost no effect))
same,"F: Digitaria ciliaris, herbicidal effect grade",Digitaria ciliaris,1 (Herbicidal ratio of 5% or higher and lower than 20%)
same,"herbicidal effect on D (Leptochloa chinensis), grade 0-5",Leptochloa chinensis,5 (Herbicidal ratio of 90% or more (almost completely withered))
same,"M: Abutilon theophrasti, herbicidal effect grade",Abutilon theophrasti,0 (Herbicidal ratio of 5% or lower (almost no effect))
same,"c: corn, effect on crop grade",corn,3 (Herbicidal ratio of 40% or higher and lower than 70%)
same,"g: rapeseed, effect on crop grade",rapeseed,3 (Herbicidal ratio of 40% or higher and lower than 70%)
CON=C(C)CC1CC(OCCSC)=C(c2c(C)cc(C)cc2C)C1=O (stereo not drawn) [1-011],"Herbicidal effect grade, A: Echinochloa oryzacola Vasing.",[1],0 (Herbicidal ratio of 5% or lower (almost no effect))
same,"d: soybean, effect on crop grade",soybean,0 (Herbicidal ratio of 5% or lower (almost no effect))
same,"L: Apera spica-venti, herbicidal effect grade",Apera spica-venti,5 (Herbicidal ratio of 90% or more (almost completely withered))
same,"Herbicidal effect grade, C: Monochoria vaginalis",Monochoria vaginalis,0 (Herbicidal ratio of 5% or lower (almost no effect))
same,"N: Amaranthus retroflexus, herbicidal effect grade",Amaranthus retroflexus,0 (Herbicidal ratio of 5% or lower (almost no effect))
same,G (Setaria viridis) herbicidal effect grade,Setaria viridis,0 (Herbicidal ratio of 5% or lower (almost no effect))
same,"O: Chenopodium album, herbicidal effect grade",Chenopodium album,0 (Herbicidal ratio of 5% or lower (almost no effect))
same,F (Digitaria ciliaris) herbicidal effect grade,Digitaria ciliaris,0 (Herbicidal ratio of 5% or lower (almost no effect))
same,"herbicidal effect on D (Leptochloa chinensis), grade 0-5",Leptochloa chinensis,5 (Herbicidal ratio of 90% or more (almost completely withered))
same,"M: Abutilon theophrasti, herbicidal effect grade",Abutilon theophrasti,0 (Herbicidal ratio of 5% or lower (almost no effect))
same,"c: corn, effect on crop grade",corn,0 (Herbicidal ratio of 5% or lower (almost no effect))
same,"f: beet, effect on crop grade",beet,0 (Herbicidal ratio of 5% or lower (almost no effect))
same,"g: rapeseed, effect on crop grade",rapeseed,4 (Herbicidal ratio of 70% or higher and lower than 90%)
CON=C(C)CC1CC(OCC#N)=C(c2c(C)cc(C)cc2C)C1=O (stereo not drawn) [1-013],"Herbicidal effect grade, A: Echinochloa oryzacola Vasing.",[1],0 (Herbicidal ratio of 5% or lower (almost no effect))
same,"d: soybean, effect on crop grade",soybean,0 (Herbicidal ratio of 5% or lower (almost no effect))
same,"L: Apera spica-venti, herbicidal effect grade",Apera spica-venti,4 (Herbicidal ratio of 70% or higher and lower than 90%)
same,"Herbicidal effect grade, C: Monochoria vaginalis",Monochoria vaginalis,0 (Herbicidal ratio of 5% or lower (almost no effect))
same,"N: Amaranthus retroflexus, herbicidal effect grade",Amaranthus retroflexus,0 (Herbicidal ratio of 5% or lower (almost no effect))
same,G (Setaria viridis) herbicidal effect grade,Setaria viridis,0 (Herbicidal ratio of 5% or lower (almost no effect))
same,"O: Chenopodium album, herbicidal effect grade",Chenopodium album,0 (Herbicidal ratio of 5% or lower (almost no effect))
same,F (Digitaria ciliaris) herbicidal effect grade,Digitaria ciliaris,0 (Herbicidal ratio of 5% or lower (almost no effect))
same,"herbicidal effect on D (Leptochloa chinensis), grade 0-5",Leptochloa chinensis,2 (Herbicidal ratio of 20% or higher and lower than 40%)
same,"M: Abutilon theophrasti, herbicidal effect grade",Abutilon theophrasti,0 (Herbicidal ratio of 5% or lower (almost no effect))
same,"c: corn, effect on crop grade",corn,0 (Herbicidal ratio of 5% or lower (almost no effect))
same,"f: beet, effect on crop grade",beet,0 (Herbicidal ratio of 5% or lower (almost no effect))
same,"g: rapeseed, effect on crop grade",rapeseed,4 (Herbicidal ratio of 70% or higher and lower than 90%)
CON=C(C)CC1CC(O)=C(c2c(C)cc(-n3cc(Cl)cn3)cc2C)C1=O (mixture of isomers) [6-004],"Herbicidal effect grade, A: Echinochloa oryzacola Vasing.",[1],5 (Herbicidal ratio of 90% or more (almost completely withered))
same,"d: soybean, effect on crop grade",soybean,1 (Herbicidal ratio of 5% or higher and lower than 20%)
same,"L: Apera spica-venti, herbicidal effect grade",Apera spica-venti,5 (Herbicidal ratio of 90% or more (almost completely withered))
same,"Herbicidal effect grade, C: Monochoria vaginalis",Monochoria vaginalis,2 (Herbicidal ratio of 20% or higher and lower than 40%)
same,"N: Amaranthus retroflexus, herbicidal effect grade",Amaranthus retroflexus,2 (Herbicidal ratio of 20% or higher and lower than 40%)
same,"G: Setaria viridis, herbicidal effect grade",Setaria viridis,5 (Herbicidal ratio of 90% or more (almost completely withered))
same,"O: Chenopodium album, herbicidal effect grade",Chenopodium album,3 (Herbicidal ratio of 40% or higher and lower than 70%)
same,"Q: Galium spurium, herbicidal effect grade",Galium spurium,3 (Herbicidal ratio of 40% or higher and lower than 70%)
same,"F: Digitaria ciliaris, herbicidal effect grade",Digitaria ciliaris,5 (Herbicidal ratio of 90% or more (almost completely withered))
same,"herbicidal effect on D (Leptochloa chinensis), grade 0-5",Leptochloa chinensis,5 (Herbicidal ratio of 90% or more (almost completely withered))
same,"M: Abutilon theophrasti, herbicidal effect grade",Abutilon theophrasti,3 (Herbicidal ratio of 40% or higher and lower than 70%)
same,"c: corn, effect on crop grade",corn,4 (Herbicidal ratio of 70% or higher and lower than 90%)
same,"g: rapeseed, effect on crop grade",rapeseed,4 (Herbicidal ratio of 70% or higher and lower than 90%)
C=Cc1cc(C)c(C2=C(O)CC(CC(C)=NOC)C2=O)c(C)c1 (mixture of isomers) [6-031],"Herbicidal effect grade, A: Echinochloa oryzacola Vasing.",[1],4 (Herbicidal ratio of 70% or higher and lower than 90%)
same,"d: soybean, effect on crop grade",soybean,0 (Herbicidal ratio of 5% or lower (almost no effect))
same,"L: Apera spica-venti, herbicidal effect grade",Apera spica-venti,4 (Herbicidal ratio of 70% or higher and lower than 90%)
same,"Herbicidal effect grade, C: Monochoria vaginalis",Monochoria vaginalis,0 (Herbicidal ratio of 5% or lower (almost no effect))
same,"N: Amaranthus retroflexus, herbicidal effect grade",Amaranthus retroflexus,0 (Herbicidal ratio of 5% or lower (almost no effect))
same,"G: Setaria viridis, herbicidal effect grade",Setaria viridis,0 (Herbicidal ratio of 5% or lower (almost no effect))
same,"O: Chenopodium album, herbicidal effect grade",Chenopodium album,3 (Herbicidal ratio of 40% or higher and lower than 70%)
same,"F: Digitaria ciliaris, herbicidal effect grade",Digitaria ciliaris,0 (Herbicidal ratio of 5% or lower (almost no effect))
same,"herbicidal effect on D (Leptochloa chinensis), grade 0-5",Leptochloa chinensis,2 (Herbicidal ratio of 20% or higher and lower than 40%)
same,"M: Abutilon theophrasti, herbicidal effect grade",Abutilon theophrasti,2 (Herbicidal ratio of 20% or higher and lower than 40%)
same,"c: corn, effect on crop grade",corn,4 (Herbicidal ratio of 70% or higher and lower than 90%)
same,"f: beet, effect on crop grade",beet,0 (Herbicidal ratio of 5% or lower (almost no effect))
same,"g: rapeseed, effect on crop grade",rapeseed,3 (Herbicidal ratio of 40% or higher and lower than 70%)
